Measured values from PubChem BioAssay AID248 (DTP/NCI, 2004).
Toxic doses and inconclusive results are not listed.

System: L1210 leukemia ip in BDF1 mice, survival T/C
Test: NCI In Vivo Anticancer Drug Screen. Data for tumor model L1210 Leukemia (intraperitoneal) in B6D2F1 (BDF1) mice
Settings: endpoint: mean survival time, higher = longer survival
Outline: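 In this screen, tumor-bearing mice given compound are compared to those given vehicle, and their survival values are reported as a treated-to-control quotient.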

[1] = dose: 100.0 mg/kg/injection, schedule: Q01DX009 (ip), vehicle: saline with Tween-80
[2] = dose: 100.0 mg/kg/injection, schedule: Q04DX003 (ip), vehicle: saline with Tween-80
[3] = dose: 200.0 mg/kg/injection, schedule: Q01DX009 (ip), vehicle: saline with Tween-80
[4] = dose: 200.0 mg/kg/injection, schedule: Q04DX003 (ip), vehicle: saline with Tween-80
[5] = dose: 400.0 mg/kg/injection, schedule: Q01DX009 (ip), vehicle: saline with Tween-80
[6] = dose: 400.0 mg/kg/injection, schedule: Q04DX003 (ip), vehicle: saline with Tween-80
[7] = dose: 100.0 mg/kg/injection, schedule: Q01DX001 (ip), vehicle: saline
[8] = dose: 200.0 mg/kg/injection, schedule: Q01DX001 (ip), vehicle: saline
[9] = dose: 400.0 mg/kg/injection, schedule: Q01DX001 (ip), vehicle: saline
[10] = dose: 100.0 mg/kg/injection, schedule: Q04DX003 (ip), vehicle: Klucel (hydroxypropylcellulose) (HPC)
[11] = dose: 200.0 mg/kg/injection, schedule: Q04DX003 (ip), vehicle: Klucel (hydroxypropylcellulose) (HPC)
[12] = dose: 400.0 mg/kg/injection, schedule: Q04DX003 (ip), vehicle: Klucel (hydroxypropylcellulose) (HPC)
[13] = dose: 100.0 mg/kg/injection, schedule: Q01DX009 (ip), vehicle: Klucel (hydroxypropylcellulose) (HPC)

CCCCCCCCC/C(C)=N\N=C(N)N
T/C (dose: 8.0 mg/kg/injection, schedule: Q01DX Z (oral), vehicle: methylcellulose (MC)): 91 % of control | T/C (dose: 15.0 mg/kg/injection, schedule: Q01DX Z (ip), vehicle: methylcellulose (MC)): 90 % of control | T/C (dose: 15.0 mg/kg/injection, schedule: Q01DX Z (oral), vehicle: methylcellulose (MC)): 87 % of control | T/C (dose: 30.0 mg/kg/injection, schedule: Q01DX Z (oral), vehicle: methylcellulose (MC)): 96 % of control | T/C (dose: 60.0 mg/kg/injection, schedule: Q01DX Z (oral), vehicle: methylcellulose (MC)): 96 % of control | T/C (dose: 120.0 mg/kg/injection, schedule: Q01DX Z (oral), vehicle: methylcellulose (MC)): 101 % of control

C=CCNC(=S)Nc1cccc(C(F)(F)F)c1
T/C (dose: 50.0 mg/kg/injection, schedule: Q01DX001 (sc), vehicle: carboxymethylcellulose (CMC)): 104 % of control | T/C (dose: 100.0 mg/kg/injection, schedule: Q01DX001 (sc), vehicle: carboxymethylcellulose (CMC)): 101 % of control | T/C (dose: 200.0 mg/kg/injection, schedule: Q01DX001 (sc), vehicle: carboxymethylcellulose (CMC)): 104 % of control | T/C (dose: 400.0 mg/kg/injection, schedule: Q01DX001 (sc), vehicle: carboxymethylcellulose (CMC)): 114 % of control

CCCCOC(OCCCC)C(C)(C)CN(C)C
T/C (dose: 12.5 mg/kg/injection, schedule: Q04DX002 (ip), vehicle: saline): 117 % of control | T/C (dose: 25.0 mg/kg/injection, schedule: Q04DX002 (ip), vehicle: saline): 105 % of control | T/C (dose: 50.0 mg/kg/injection, schedule: Q04DX002 (ip), vehicle: saline): 98 % of control

O=c1cc(Cl)c(=O)[nH][nH]1
T/C [1]: 100 % of control | T/C [2]: 94 % of control | T/C [3]: 100 % of control | T/C [4]: 94 % of control | T/C [5]: 114 % of control | T/C [6]: 94 % of control

N#CCCCOc1cccc(N)c1
T/C [7]: 101 % of control | T/C [8]: 101 % of control | T/C [9]: 101 % of control

CC(O)C(O)C(O)C(O)/C=N/O (stereo unspecified)
T/C [10]: 100 % of control | T/C [11]: 97 % of control | T/C [12]: 102 % of control

CCCCCCCCCCCCSC1=C(Cl)C(=O)C(OC)=C(OC)C1=O
T/C (dose: 3.12 mg/kg/injection, schedule: Q01DX009 (ip), vehicle: saline with Tween-80): 100 % of control | T/C (dose: 6.25 mg/kg/injection, schedule: Q01DX009 (ip), vehicle: saline with Tween-80): 93 % of control | T/C (dose: 12.5 mg/kg/injection, schedule: Q01DX009 (ip), vehicle: saline with Tween-80): 94 % of control | T/C (dose: 25.0 mg/kg/injection, schedule: Q01DX009 (ip), vehicle: saline with Tween-80): 96 % of control | T/C (dose: 50.0 mg/kg/injection, schedule: Q01DX009 (ip), vehicle: saline with Tween-80): 100 % of control | T/C [1]: 94 % of control

O=C1C(=O)C2CCC1C2
T/C (dose: 25.0 mg/kg/injection, schedule: Q04DX002 (ip), vehicle: other): 100 % of control | T/C (dose: 50.0 mg/kg/injection, schedule: Q04DX002 (ip), vehicle: other): 98 % of control | T/C (dose: 100.0 mg/kg/injection, schedule: Q04DX002 (ip), vehicle: other): 98 % of control

CCN(CC)CCN(C(=S)Nc1ccccc1)c1ccccc1
T/C (dose: 25.0 mg/kg/injection, schedule: Q01DX009 (ip), vehicle: Klucel (hydroxypropylcellulose) (HPC)): 103 % of control | T/C (dose: 50.0 mg/kg/injection, schedule: Q01DX009 (ip), vehicle: Klucel (hydroxypropylcellulose) (HPC)): 102 % of control | T/C [13]: 96 % of control

O=C1c2nc3ccccc3nc2C(=O)N1O
T/C [13]: 107 % of control | T/C (dose: 200.0 mg/kg/injection, schedule: Q01DX009 (ip), vehicle: Klucel (hydroxypropylcellulose) (HPC)): 100 % of control

COc1ccc(C=NC(C)(C)CO)cc1
T/C (dose: 100.0 mg/kg/injection, schedule: Q01DX001 (ip), vehicle: steriod suspending solution): 114 % of control | T/C (dose: 200.0 mg/kg/injection, schedule: Q01DX001 (ip), vehicle: steriod suspending solution): 90 % of control | T/C (dose: 400.0 mg/kg/injection, schedule: Q01DX001 (ip), vehicle: steriod suspending solution): 97 % of control

NC(=O)C1=C(N)c2ccccc2C1c1ccccc1 (stereo unspecified)
T/C [7]: 101 % of control | T/C [8]: 97 % of control | T/C [9]: 97 % of control

CCOC(=O)c1ccc(NC(=O)Sc2ccc(C(C)(C)C)cc2C)cc1
T/C [1]: 96 % of control | T/C [3]: 100 % of control

Clc1ccc(C(=Cc2ccccc2Br)c2ccc(Cl)cc2)cc1
T/C [1]: 100 % of control | T/C [2]: 98 % of control | T/C [3]: 100 % of control | T/C [4]: 98 % of control | T/C [5]: 96 % of control | T/C [6]: 101 % of control

[N-]=[N+]=C1N=CN=C1c1ncn[nH]1
T/C (dose: 6.0 mg/kg/injection, schedule: Q01DX015 (ip), vehicle: carboxymethylcellulose (CMC)): 120 % of control | T/C (dose: 50.0 mg/kg/injection, schedule: Q01DX001 (ip), vehicle: carboxymethylcellulose (CMC)): 115 % of control | T/C (dose: 55.0 mg/kg/injection, schedule: Q01DX015 (ip), vehicle: carboxymethylcellulose (CMC)): 172 % of control

CCc1ccc(C(O)C(=O)O)cc1 (stereo unspecified)
T/C (dose: 75.0 mg/kg/injection, schedule: Q01DX001 (ip), vehicle: acetone): 90 % of control | T/C (dose: 150.0 mg/kg/injection, schedule: Q01DX001 (ip), vehicle: acetone): 94 % of control

C[N+](C)(C)N=C1CCC2(CC1)c1ccccc1-c1ccccc12
T/C (dose: 12.5 mg/kg/injection, schedule: Q01DX009 (ip), vehicle: saline): 95 % of control | T/C (dose: 12.5 mg/kg/injection, schedule: Q04DX003 (ip), vehicle: saline): 103 % of control | T/C (dose: 25.0 mg/kg/injection, schedule: Q01DX009 (ip), vehicle: saline): 93 % of control | T/C (dose: 25.0 mg/kg/injection, schedule: Q04DX003 (ip), vehicle: saline): 100 % of control | T/C (dose: 50.0 mg/kg/injection, schedule: Q04DX003 (ip), vehicle: saline): 95 % of control

CN(C)C12CCCCC1S(=O)(=O)C2 (stereo unspecified)
T/C (dose: 10.0 mg/kg/injection, schedule: Q01DX009 (ip), vehicle: saline): 88 % of control | T/C (dose: 20.0 mg/kg/injection, schedule: Q01DX009 (ip), vehicle: saline): 98 % of control

CCCCOC(=O)/C=C\C(=O)NC(N)=O
T/C (dose: 31.0 mg/kg/injection, schedule: Q01DX Z (ip), vehicle: methylcellulose (MC)): 98 % of control | T/C (dose: 51.0 mg/kg/injection, schedule: Q01DX Z (ip), vehicle: methylcellulose (MC)): 101 % of control

CCOC(=O)c1ccc(C)cc1Nc1ccccc1C(F)(F)F
T/C [10]: 90 % of control | T/C [11]: 94 % of control | T/C [12]: 95 % of control

O=NN(CCCl)C(=O)NC1CCC(Cl)CC1 (stereo unspecified)
T/C (dose: 12.0 mg/kg/injection, schedule: Q01DX001 (ip), vehicle: Klucel (hydroxypropylcellulose) (HPC)): 123 % of control | T/C (dose: 21.0 mg/kg/injection, schedule: Q01DX001 (ip), vehicle: Klucel (hydroxypropylcellulose) (HPC)): 217 % of control | T/C (dose: 21.0 mg/kg/injection, schedule: Q01DX001 (ip), vehicle: carboxymethylcellulose (CMC)): 182 % of control | T/C (dose: 26.0 mg/kg/injection, schedule: Q01DX001 (ip), vehicle: Klucel (hydroxypropylcellulose) (HPC)): 303 % of control | T/C (dose: 34.0 mg/kg/injection, schedule: Q01DX001 (ip), vehicle: Klucel (hydroxypropylcellulose) (HPC)): 387 % of control | T/C (dose: 34.0 mg/kg/injection, schedule: Q01DX001 (ip), vehicle: carboxymethylcellulose (CMC)): 346 % of control | T/C (dose: 40.0 mg/kg/injection, schedule: Q01DX001 (ip), vehicle: Klucel (hydroxypropylcellulose) (HPC)): 291 % of control | T/C (dose: 49.0 mg/kg/injection, schedule: Q01DX001 (ip), vehicle: Klucel (hydroxypropylcellulose) (HPC)): 460 % of control | T/C (dose: 49.0 mg/kg/injection, schedule: Q01DX001 (ip), vehicle: carboxymethylcellulose (CMC)): 469 % of control | T/C (dose: 60.0 mg/kg/injection, schedule: Q01DX001 (ip), vehicle: Klucel (hydroxypropylcellulose) (HPC)): 275 % of control | T/C (dose: 74.0 mg/kg/injection, schedule: Q01DX001 (ip), vehicle: Klucel (hydroxypropylcellulose) (HPC)): 439 % of control | T/C (dose: 74.0 mg/kg/injection, schedule: Q01DX001 (ip), vehicle: carboxymethylcellulose (CMC)): 469 % of control | T/C (dose: 90.0 mg/kg/injection, schedule: Q01DX001 (ip), vehicle: Klucel (hydroxypropylcellulose) (HPC)): 91 % of control | T/C (dose: 110.0 mg/kg/injection, schedule: Q01DX001 (ip), vehicle: Klucel (hydroxypropylcellulose) (HPC)): 218 % of control | T/C (dose: 110.0 mg/kg/injection, schedule: Q01DX001 (ip), vehicle: carboxymethylcellulose (CMC)): 153 % of control | T/C (dose: 133.0 mg/kg/injection, schedule: Q01DX001 (ip), vehicle: Klucel (hydroxypropylcellulose) (HPC)): 98 % of control
